Measured values published in PubChem BioAssay AID743474 (The Scripps Research Institute Molecular Screening Center, 2014).
Active and inactive are the calls of the source. How the calls were made is not given here.

System: CCHF vOTU
Assay: CCHF vOTU protease inhibitors, late-stage follow-up, biochemical, fluorescence, Ub-R110 substrate (AID 743474)
Conditions: Recombinant CCHF vOTU, Ub-R110 fluorescence cleavage, active compounds read high

COc1ccccc1NC(=O)COC(=O)c1ccc([N+](=O)[O-])s1
inhibition (Assay 1, Ub-R110 substrate, at 35.07 µM): 26.7%

Cc1ccc(NC2=CC(=O)C(=O)c3ccccc32)cc1
inhibition (Assay 1, Ub-R110 substrate, at 12.24 µM): 22.1%

O=S(=O)(Nc1cc2nc3ccccc3nc2n1Cc1ccccc1)c1ccc(Cl)cc1
inhibition (Assay 1, Ub-R110 substrate, at 7.6 µM): 5% (inactive)

COC1=C(N)C(=O)c2nc(C)ccc2C1=O
inhibition (Assay 1, Ub-R110 substrate, at 4.98 µM): 16.6% (inactive)

Cc1ccc(N2C(=O)[C@@H]3[C@H](C2=O)C2c4ccccc4C=CN2[C@@H]3C(=O)c2ccco2)cc1 (stereo partly drawn)
inhibition (Assay 1, Ub-R110 substrate, at 5.2 µM): 33.9%

CC(=O)c1ccc(NC(=S)Nc2cccc3cnccc23)cc1
inhibition (Assay 1, Ub-R110 substrate, at 7.69 µM): 4.4% (inactive)

O=C(OCc1nnc(-c2ccccc2)o1)c1ccc([N+](=O)[O-])s1
inhibition (Assay 1, Ub-R110 substrate, at 26.04 µM): 20.8%

O=C(COC(=O)c1ccc([N+](=O)[O-])s1)NCc1ccc(F)cc1
inhibition (Assay 1, Ub-R110 substrate, at 40.58 µM): 30.5%

O=C1C=C(Nc2ccccc2)c2ccccc2C1=O
inhibition (Assay 1, Ub-R110 substrate, at 15.55 µM): 21.8%

COc1ccc2noc3c2c1C(=O)c1ccccc1-3
inhibition (Assay 1, Ub-R110 substrate, at 6.28 µM): 22.7%

CC1CCCC(NC(=O)COC(=O)c2ccc([N+](=O)[O-])s2)C1C (stereo not drawn)
inhibition (Assay 1, Ub-R110 substrate, at 31.32 µM): 14.7% (inactive)

O=C(NC1=CC(=O)c2ccccc2C1=O)c1ccccc1
inhibition (Assay 1, Ub-R110 substrate, at 12.37 µM): 55.6%

Cc1ccccc1-c1cc2c(nn1)-c1ccccc1C2=O
inhibition (Assay 1, Ub-R110 substrate, at 2.23 µM): 3.27% (inactive) | inhibition (Assay 2, Ub-R110 substrate, at 4.46 µM): 15.3% (inactive)

COC(CNC(=O)c1ccc2c3c(onc13)-c1ccccc1C2=O)OC
inhibition (Assay 1, Ub-R110 substrate, at 24.19 µM): 52.5%

O=C(O)CSc1cc(NS(=O)(=O)c2cccc([N+](=O)[O-])c2)c2ccccc2c1O
inhibition (Assay 1, Ub-R110 substrate, at 7.61 µM): 0.5% (inactive)

O=C(c1ccco1)[C@@H]1[C@@H]2C(=O)N(c3ccc(Br)cc3)C(=O)[C@@H]2C2c3ccccc3C=CN21 (stereo partly drawn)
inhibition (Assay 1, Ub-R110 substrate, at 11.01 µM): 16.9% (inactive)

CCc1cc[n+](C2=C(NS(=O)(=O)c3cccs3)C(=O)c3ccccc3C2=O)cc1
inhibition (Assay 1, Ub-R110 substrate, at 14.16 µM): 64.3%

O=C(COC(=O)c1ccc([N+](=O)[O-])s1)Nc1ccc(F)cc1
inhibition (Assay 1, Ub-R110 substrate, at 26.34 µM): 21.3%

CC1COCC(C)N1C1=C(Cl)C(=O)c2ccccc2C1=O (stereo not drawn)
inhibition (Assay 1, Ub-R110 substrate, at 14.67 µM): 31.2%

CC1(C)C=C2C(=NN(c3ccccc3)C(N)=C2C#N)CO1
inhibition (Assay 1, Ub-R110 substrate, at 23.49 µM): 22.2%

NS(=O)(=O)c1ccc(NC(=O)COC(=O)c2ccc([N+](=O)[O-])s2)cc1
inhibition (Assay 1, Ub-R110 substrate, at 29.01 µM): 13.3% (inactive)

CCn1nc(/C=C/c2ccccc2)nc2c(=O)n(C)c(=O)nc1-2
inhibition (Assay 1, Ub-R110 substrate, at 0.49 µM): 98%

CN(C1=C(NC(=O)c2ccccc2)C(=O)c2ccccc2C1=O)C1CCS(=O)(=O)C1 (stereo not drawn)
inhibition (Assay 1, Ub-R110 substrate, at 9.59 µM): 4.36% (inactive) | inhibition (Assay 2, Ub-R110 substrate, at 19.18 µM): 55.5%

COc1cc(Br)c(C(=O)c2nccc3cc(OC)c(OC)cc23)cc1OC
inhibition (Assay 1, Ub-R110 substrate, at 1.13 µM): 14.4% (inactive)

O=C1Cc2ccccc2C(=O)N1Cc1ccccc1
inhibition (Assay 1, Ub-R110 substrate, at 1.31 µM): 49.5%

O=c1[nH]c(Nc2ccccc2)cc2cc(Br)ccc12
inhibition (Assay 1, Ub-R110 substrate, at 1.45 µM): 19.9% (inactive)

O=C1Cc2ccccc2C(=O)N1
inhibition (Assay 1, Ub-R110 substrate, at 0.6 µM): 57.9%

CCC(CNc1cc(OC)cc2cccnc12)NC1CCCCC1 (stereo not drawn)
inhibition (Assay 1, Ub-R110 substrate, at 6.96 µM): 3.8% (inactive)

NS(=O)(=O)c1ccc(NC2=CC(=O)C(=O)c3ccccc32)cc1
inhibition (Assay 1, Ub-R110 substrate, at 11.51 µM): 21.1%

Cc1c(Cl)cnc(NC(=O)COC(=O)c2ccc([N+](=O)[O-])s2)c1Cl
inhibition (Assay 1, Ub-R110 substrate, at 20.44 µM): 40.7%

CCOC(=O)N=Nc1c2ccccc2c2nc3no[nH]c3nc12
inhibition (Assay 1, Ub-R110 substrate, at 7.75 µM): 33.2%

O=C1OC(Nc2cc(Br)cc3cccnc23)c2ccccc21 (stereo not drawn)
inhibition (Assay 1, Ub-R110 substrate, at 5.44 µM): 6% (inactive)

COc1cc(C(=O)c2nccc3cc(OC)c(OC)cc23)c([N+](=O)[O-])cc1OC
inhibition (Assay 1, Ub-R110 substrate, at 4.04 µM): 0.3% (inactive)

O=C(NC1=C(NC2CCS(=O)(=O)C2)C(=O)c2ccccc2C1=O)c1ccccc1 (stereo not drawn)
inhibition (Assay 1, Ub-R110 substrate, at 14.2 µM): 49.8%

O=C(/C=C/c1ccc(O)cc1)c1ccc(NC2=C(N3CCCCC3)C(=O)c3ccccc3C2=O)cc1
inhibition (Assay 1, Ub-R110 substrate, at 10.17 µM): 23.2%

Cn1nc(-c2ccccn2)nc2c(=O)n(C)c(=O)nc1-2
inhibition (Assay 1, Ub-R110 substrate, at 1.16 µM): 97.3%

O=C1Cc2ccccc2C(=O)N1CCc1ccccc1
inhibition (Assay 1, Ub-R110 substrate, at 1.51 µM): 3.44% (inactive) | inhibition (Assay 2, Ub-R110 substrate, at 3.02 µM): 10.7% (inactive)

O=C(COC(=O)c1ccc([N+](=O)[O-])s1)Nc1ncc(C(F)(F)F)cc1Cl
inhibition (Assay 1, Ub-R110 substrate, concentration not given here): 41.1%

COc1cc(NC(=O)COC(=O)c2ccc([N+](=O)[O-])s2)cc(OC)c1OC
inhibition (Assay 1, Ub-R110 substrate, at 21.72 µM): 15.2% (inactive)

Cc1ccc2c(c1C)-c1c(ccc(C)c1C)C(=O)C2=O
inhibition (Assay 1, Ub-R110 substrate, at 18.9 µM): 62.5%
